PMC6383986, “Fragment-Based Covalent Ligand Screening Enables Rapid Discovery of Inhibitors for the RBR E3 Ubiquitin Ligase HOIP” (Journal of the American Chemical Society, 2019)
“Also recorded” adds a separate entry of the source.

What was measured:
HOIP RBR domain [1] = target: T1, HOIP RBR domain (Homo sapiens, UniProt Q96EP0); experiment: Protein LC-MS compound screening of analogs; format: binding; conditions: 2 μM protein, 0.5, 4, 24 h; for labeling of HOIP RBR domain relative to hit (5): 20 μM compound (10-fold excess)
T1 construct: made in house; host or cells: E. coli BL21-GOLD(DE3)
T1 sequence (Q96EP0 697-1072): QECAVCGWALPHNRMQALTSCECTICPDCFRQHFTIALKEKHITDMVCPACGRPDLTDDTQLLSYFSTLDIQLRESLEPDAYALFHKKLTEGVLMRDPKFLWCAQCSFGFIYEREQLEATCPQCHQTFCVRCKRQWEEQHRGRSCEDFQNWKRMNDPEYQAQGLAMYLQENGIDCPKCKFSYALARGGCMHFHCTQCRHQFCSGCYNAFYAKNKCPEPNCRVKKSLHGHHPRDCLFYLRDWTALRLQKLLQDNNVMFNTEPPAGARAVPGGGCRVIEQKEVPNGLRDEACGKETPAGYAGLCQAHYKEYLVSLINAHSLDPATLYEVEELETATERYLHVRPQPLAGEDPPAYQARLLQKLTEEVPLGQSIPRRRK
Procedure: of (1) and 3 mM stock solution of (5) in DMSO, giving a final concentration of 6 and 30 µM respectively, and 1% DMSO).
The UbcH5c and UbcH7 E2 enzymes were diluted with buffer to afford new stock solutions at 10 µM, of which 25 µL was used for each sample (final concentration 5 µM, 85-91 µg/mL), together with 24.5 µL buffer and 0.5 µL compound solution (1 mM stock solution of (1) and 5 mM stock solution of (5) in DMSO, giving a final concentration of 10 and 50 µM respectively, and 1% DMSO).
The E1 enzyme was diluted with buffer to afford a new stock solution at 2 µM, of which 25 µL was used for each sample (final concentration 1 µM, 120 µg/mL), together with 24.5 µL buffer and 0.5 µL compound solution (200 µM stock solution of (1) and 1 mM stock solution of (5) in DMSO, giving a final concentration of 2 and 10 µM respectively, and 1% DMSO).
Protocol as described above, using the HOIP RBR (stock solutions around 300 µM) in buffer (50 mM HEPES, 150 mM NaCl, pH 7.5) to afford a new stock solution at 4 µM of which 25 µL was used for each sample (final concentration 2 µM, 87 µg/mL), together with 24.5 µL buffer and 0.5 µL compound solution (2 mM stock solutions in DMSO, giving a final concentration of 20 µM, and 1% DMSO). The samples were analyzed after 0.5, 4, and 24 h incubation.
Supplementary Figure S7. TIC traces of deconvoluted protein masses from the screening of analogues to hit compound (5). The HOIP RBR (2 µM; MW = 43398 g/mol) was incubated with […]
compound (17) and aliquots were analyzed after 0.5, 4, and 24 h incubation. The data was used for the generation of the heat map in Figure 5A.
(1 picture or pasted object on this page, not shown here)

HOIP RBR domain [2] = target: T1, HOIP RBR domain; experiment: In vitro polyubiquitination assay; format: biochemical; conditions: HOIP RBR preincubated with compound (200 μM) overnight; E2 UbcH7 or UbcH5c; vs DMSO
Procedure: 4.3 Polyubiquitination assay
The ubiquitination assay was essentially carried out as previously described.12 The HOIP RBR domain was pre-incubated with compounds (5) or (6), or DMSO in 50 mM HEPES, 150 mM NaCl, pH 7.5 buffer at 23 °C with gentle shaking for overnight (20-24 h). E1, E2 (UbcH7 or UbcH5c), ubiquitin, and MgCl2 were added to each vial, and aliquots of 15 µL were withdrawn to mark time zero. ATP was then added and aliquots of 15 µL were withdrawn after 5, 15, 30, and 60 min incubation. Final concentrations: E1 (1 µM), E2 (5 µM), E3 (5 µM), compounds (200 µM), DMSO (1%), ubiquitin (40 µM), MgCl2 (20 mM), ATP (10 mM); reaction volume 100 µL. The aliquots were analyzed by SDS PAGE (Figure 4A and Supplementary Figure S9) as described below (section

[3] = test system: NF-κB activation in HEK293T cells overexpressing full length HOIP, HOIL-1L, and SHARPIN; experiment: NF-κB Luciferase reporter assay; format: cell-based; conditions: overnight (17 h) treatment
Procedure: suspensions were agitated at 4 °C overnight. The supernatants were removed and kept on ice, and the beads were washed with wash buffer (2 × 0.5 mL), PBS (2 × 0.5 mL), and 50 mM HEPES, 150 mM NaCl, pH 7.5 buffer (2 × 0.5 mL).
A polyubiquitination assay master mix was prepared by mixing E1, UbcH7, ubiquitin, MgCl2, in buffer (50 mM HEPES, 150 mM NaCl, pH 7.5). The solution (30 µL per sample) was added to the beads, and lastly ATP (0.6 µL of 100 mM stock) was added to initiate the reaction. Final concentrations were E1 (0.2 µM), UbcH7 E2 (1 µM), ubiquitin (10 µM), MgCl2 (4 mM), ATP (2 mM). The vials were incubated (Eppendorf Thermomixer) at 25 °C, 900 rpm for 1.5 h. […] All samples were analyzed by SDS PAGE and Western Blot (Figure 6C and Supplementary Figure S13) as described in sections 4.5 and 4.6. […]
(§1) Reporter assays: After incubating the plates for 17 h, Firefly and Renilla Luciferase activity was analyzed using the Dual-Luciferase® Reporter Assay System (Promega) and a BertholdTech […]
(§2) with Mikrowin 2000 software version 4.41: using its injectors to inject 100 µL LAR II and 100 µL Stop&Glo (see manufacturer’s instructions; Promega #E1960). NF-κB regulated luciferase activity was first normalized to Renilla luciferase activity and then the fold activation relative to cells transfected with empty vector calculated. […]
reader. […]

[4] = test system: HEK293T cells overexpressing full-length HOIP, HOIL-1L, and SHARPIN; experiment: CellTiter-Glo Luminescent cell viability assay, transfected cells; format: cell-based; conditions: 17 h
Procedure: Thurston, Imperial College London. 2.3 × 10^6 cells were seeded into 100 mm Petri dishes in DMEM media supplemented with 10% v/v FBS (Biosera) and 1% v/v L-glutamine/penicillin/streptomycin (Sigma-Aldrich) and incubated at 37 °C overnight. The following morning the cells were transfected using either 6 µg pcDNA3 or 4.5 µg HOIP, 0.3 µg HOIL-1L and 1.2 µg SHARPIN as well as 450 ng pRDII Luc and 180 ng pRLTK (Promega) plasmids. 7 h after transfection, the cells were trypsinized and re-suspended in DMEM media supplemented with 1% v/v FBS (Biosera) and 1% v/v L-glutamine/penicillin/streptomycin (Sigma-Aldrich). […]
as §1, §2
Cell viability assays: After incubating the plates for 17 h in the presence of compound, cell viability was determined using the CellTiter-Glo® Luminescent Cell Viability Assay according to manufacturer’s instructions (Promega #G7571). […]

SMILES	labeling of HOIP RBR domain relative to hit (5) (HOIP RBR domain [1])	further results
COC(=O)CCCNC(=O)c1cc2c([nH]c1=O)CCC2 [Compound 6]	abolished activity	polyubiquitin chain formation (HOIP RBR domain [2]): no inhibitory effect; also recorded: no effect on catalytic activity
COC(=O)/C=C/CCNC(=O)c1cc2c([nH]c1=O)CCC2 [Compound 9]	significantly lower activity	–
COC(=O)/C=C/CNC(C)=O [Compound 10]	significantly lower activity	–
COC(=O)/C=C/CNC(=O)c1ccc(-c2ccccc2)[nH]c1=O [Compound 11i]	inactive	–
COC(=O)CCCNC(=O)c1cc2c([nH]c1=O)CCCC2 [Compound 17]	–	labeling of HOIP RBR domain (HOIP RBR domain [1]; 200 μM compound): abolished activity; effect on NF-κB activity [3]: no effect on NF-κB activity; effect on cell viability [4]: neither compound had any effect on cell viability
